The values that follow come from US20050272752A1, “Complexes of E-2-Methoxy-N-(3-{4-[3-methyl-4-(6-methyl-pyridin-3-yloxy)-phenylamino]-quinazolin-6-yl}-allyl)-acetamide and methods of preparing same” (Pfizer Inc, priority 2004, published 2005).

The test system of data set [1] is another carcinoma which does not express the EGF receptor. The settings on record: cited from earlier work.
Data set [2] concerns transplanted human mammary carcinoma which expresses epidermal growth factor receptor tyrosine kinase (EGFR). The settings on record: EGFR-expressing carcinoma in athymic nude mice; cited from earlier work.
The nature of data set [3]: hygroscopic stability of the sesquisuccinate complex. In kind it is physicochemical. To be noted: solid complex; relevant to weight changes during manufacture of capsules or tablets.

Take `O=CN/C=C/c1cc(O)ccc1O` [erbstatin]: the “growth of carcinoma not expressing the EGF receptor” value in data set [1] is recorded as “without effect on the growth”. Also, the “growth of transplanted human mammary carcinoma” value in data set [2] is reported as “selectively attenuates the growth”. In the case of `COCC(=O)NC/C=C/c1ccc2ncnc(Nc3ccc(Oc4ccc(C)nc4)c(C)c3)c2c1` [sesquisuccinate complex, E-2-Methoxy-N-(3-{4-[3-methyl-4-(6-methyl-pyridin-3-yloxy)-phenylamino]-quinazolin-6-yl}-allyl)-acetamide], in data set [3], the hygroscopic stability result was “substantially hygroscopically stable”.
